These results are taken from patent US9981928B2, “Aryl sulfide derivatives and aryl sulfoxide derivatives as acaricides and insecticides” (BAYER CROPSCIENCE AKTIENGESELLSCHAFT, priority 2013, dated 2018).

In data set [1] the test system is greenhouse red spider mite (Tetranychus urticae). The data set can be described thus: Tetranychus urticae spray test, OP-resistant (TETRUR), bean leaf disks. Type of data set: in vivo. As to conditions: bean leaf disks, application rate 500 g/ha, after 6 days; for pest or weed control at 500 g/ha: Tetranychus urticae, foliar, 144 h, read-out: efficacy in %. Here is the method:
Tetranychus urticae—Spray Test, OP-Resistant (TETRUR)
Solvent: 78.0 parts by weight of acetone
• 1.5 parts by weight of dimethylformamide Emulsifier: alkylaryl polyglycol ether
To produce a suitable preparation of active compound, 1 part by weight of active compound is dissolved using the stated parts by weight of solvent and made up with water containing an emulsifier concentration of 1000 ppm until the desired concentration is attained. To produce further test concentrations, the preparation is diluted with emulsifier-containing water.
disks of bean leaves (Phaseolus vulgaris) infested with all stages of the greenhouse red spider mite (Tetranychus urticae) are sprayed with an active compound preparation of the desired concentration.
After 6 days, the efficacy in % is determined. 100% means that all the spider mites have been killed; 0% means that none of the spider mites have been killed.

Data set [2] is described as follows: log P determination by HPLC on reversed-phase columns (C 18), analogously to OECD Guideline 117. Format: physicochemical. As to conditions: for chromatographic logP: reversed-phase C18 HPLC column; for logP (HCOOH): LC-MS in the acidic range, pH 2.7, 0.1% aqueous formic acid / acetonitrile; for logP (HCOOH) / logP (neutral): HPLC reversed-phase C 18; for logP (neutral): LC-MS in the neutral range, pH 7.8, 0.001 molar aqueous ammonium hydrogencarbonate / acetonitrile. Put shortly: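 Reversed-phase C18 HPLC per OECD 117 with LC-MS detection and a linear 10→95% acetonitrile gradient. Acidic log P run at pH 2.7 with 0.1% formic acid in both eluents. Neutral log P run at pH 7.8 with 0.001 M aqueous ammonium hydrogencarbonate.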

Where [3] appears, read: acidic range, pH 2.7, 0.1% aqueous formic acid and acetonitrile, read-out: log P[a] / log P(HCOOH).
The mark [4] stands for this setting: neutral range, pH 7.8, 0.001 molar aqueous ammonium hydrogencarbonate and acetonitrile, read-out: log P[b] / log P(neutral).

SMILES strings stand for the structures. Read-outs that look alike come from different tables or passages of the source.

Turning to `Cc1cc(F)c(N2C(=O)C(C)(C)C(=O)N2C)cc1SCC(F)(F)F` [Example 174, 1-{2-Fluoro-4-methyl-5-[(2,2,2-trifluoroethyl)sulfanyl]phenyl}-2,4,4-trimethylpyrazolidine-3,5-dione], in data set [1], the pest or weed control at 500 g/ha was 100%. Also, the values for the chromatographic logP in data set [2] (setting [3]) and in data set [2] (setting [4]) were 2.84 and 2.79, respectively.

In data set [1], `Cc1cc(F)c(-n2c(=O)n(C3CC3)c(=O)n2CC(F)(F)F)cc1SCC(F)(F)F` [Example 129] showed an efficacy in % of 100%. In data set [2], the “logP (HCOOH)” value was determined as 3.48 and the “logP (neutral)” value amounted to 3.43.

Regarding `Cc1cc(F)c(N2C(=O)N(C)C(=O)C2(C)C)cc1SCC(F)(F)F` [Example 217, 1-[2-Fluoro-4-methyl-5-(2,2,2-trifluoroethylsulfanyl)phenyl]-3,5,5-trimethylimidazolidine-2,4-dione], the pest or weed control at 500 g/ha in data set [1] is 90%. The chromatographic logP in data set [2] (setting [3]) was determined as 3.11.

As for `Cc1cc(F)c(N2C(=O)C(=O)N(CC(C)C)C2=S)cc1SCC(F)(F)F` [Example 191], the efficacy in % in data set [1] was determined as 100%. For the same compound, in data set [2], the “logP (HCOOH)” value is recorded as 4.62 and the “logP (neutral)” value is reported as 4.54.

Consider `Cc1cc(F)c(N2C(=O)CSC2=NCC(C)(C)C)cc1SCC(F)(F)F` [Example 113], for which the efficacy in % in data set [1] is reported as 100%. For the same compound, in data set [2], the “logP (HCOOH)” value was found to be 4.84 and the “logP (neutral)” value was 4.73.

As for `Cc1ccc(-n2c(=O)n(C3CC3)c(=O)n2CC(C)C)cc1[S+]([O-])CC(F)(F)F` (stereo not drawn) [Example 50], the efficacy in % in data set [1] came out at 90%. Further, in data set [2], the “logP (HCOOH)” value came to 3.58 and the “logP (neutral)” value stood at 3.47.

Turning to `Cc1cc(F)c(-n2[nH]c(=O)n(C3CC3)c2=O)cc1SCC(F)(F)F` [Example 66], the efficacy in % in data set [1] was found to be 100%. In addition, in data set [2], the “logP (HCOOH)” value is on record as 2.30 and the “logP (neutral)” value is 0.69.

As for `Cc1cc(F)c(N2C(=O)CCC2=O)cc1SCC(F)(F)F` [Example 19, 1-{2-Fluoro-4-methyl-5-[(2,2,2-trifluoroethyl)sulfanyl]phenyl}pyrrolidine-2,5-dione], the pest or weed control at 500 g/ha in data set [1] is 100%. Also, the figures for the chromatographic logP in data set [2] (setting [3]) and in data set [2] (setting [4]) were 2.52 and 2.45, respectively.

Regarding `Cc1cc(F)c(-n2c(=O)n(C3CC3)c(=O)n2C)cc1[S+]([O-])CC(F)(F)F` (single isomer, unassigned) [Example 151], the efficacy in % in data set [1] was found to be 90%. Moreover, in data set [2], the “logP (HCOOH)” value came to 1.98 and the “logP (neutral)” value stood at 1.88.

As for `Cc1cc(F)c(N2CC(C)OC2=O)cc1[S+]([O-])CC(F)(F)F` (stereo not drawn) [Example 109, 3-[2-Fluoro-4-methyl-5-(2,2,2-trifluoroethylsulfinyl)phenyl]-5-methyloxazolidin-2-one], the pest or weed control at 500 g/ha in data set [1] turned out to be 100%. For the same compound, the chromatographic logP amounted to 1.93 in data set [2] (setting [3]) and 1.89 in data set [2] (setting [4]).

For the compound `COCCCn1c(=O)n(C)n(-c2cc([S+]([O-])CC(F)(F)F)c(C)cc2F)c1=O` (stereo not drawn) [Example 170], the efficacy in % in data set [1] is 90%. Besides, in data set [2], the “logP (HCOOH)” value is 1.97 and the “logP (neutral)” value is 1.98.

The compound `Cc1cc(F)c(-n2c(=O)n(C)c(=O)n2C(C)C)cc1SCC(F)(F)F` [Example 62] came in with an efficacy in % in data set [1] of 90%. In addition, in data set [2], the “logP (HCOOH)” value is recorded as 3.29 and the “logP (neutral)” value was 3.23.

Compound `COc1ccc(-n2c(=O)n(C)c(=O)n2C)cc1[S+]([O-])CC(F)(F)F` (stereo not drawn) [Example 32] gave an efficacy in % in data set [1] of 100%. In data set [2], the “logP (HCOOH)” value stood at 1.58 and the “logP (neutral)” value stood at 1.54.

For `Cc1cc(F)c(N2C(=O)N(C3CC3)C(=O)C2C)cc1SCC(F)(F)F` (stereo not drawn) [Example 214], the efficacy in % in data set [1] worked out at 100%. Further, the “logP (HCOOH)” value in data set [2] is 3.12.

As for `Cc1cc(F)c(-n2c(=O)n(C)n(CC3CC3)c2=O)cc1SCC(F)(F)F` [Example 126], the efficacy in % in data set [1] stood at 90%. The “logP (HCOOH)” value in data set [2] was determined as 3.15.
